Experimental data reported in patent US9714243B2, “4-pyridinonetriazine derivatives as HIV integrase inhibitors” (Merck Sharp & Dohme Corp., priority 2012, dated 2017).
Where two headings read alike, the source gives them in different places.

Tested on: HIV-1 (NL4-3 strain)
Experiment: Assay for inhibition of HIV replication (ViKinG; infected MT4-GFP cells)
Format: cell-based
How it was run: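 MT4-GFP cells infected with NL4-3 at low MOI for 24 h, washed, then exposed to serially diluted compound (0.4% DMSO) in RPMI. GFP+ cells counted at 24 and 48 h; R0 = 48 h/24 h ratio, inhibition normalised to DMSO and triple-drug controls, IC50 from 4-parameter fit.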

[1] = MT4-GFP cells infected with HIV-1 NL4-3, 0% normal human serum (NHS), read-out: ViKinG IP (nM) with 0% NHS
[2] = MT4-GFP cells infected with HIV-1 NL4-3, 10% normal human serum (NHS), read-out: ViKinG IP (nM) with 10% NHS
[3] = Human immunodeficiency virus 1, NL43, MT4-GFP cells infected with HIV-1 NL4-3, 0% normal human serum (NHS), read-out: ViKinG IP (nM) with 0% NHS
[4] = Human immunodeficiency virus 1, NL43, MT4-GFP cells infected with HIV-1 NL4-3, 10% normal human serum (NHS), read-out: ViKinG IP (nM) with 10% NHS
[5] = Human immunodeficiency virus 1, NL43, MT4-GFP cells infected with HIV-1 NL4-3, 100% normal human serum (NHS), read-out: ViKinG IP (nM) with 100% NHS
[6] = MT4-GFP cells infected with HIV-1 NL4-3, 100% normal human serum (NHS), read-out: ViKinG IP (nM) with 100% NHS

Row | Structure (SMILES) | IC50 [1] | IC50 [2] | IC50 [5] | also measured
1 | CN(C)CCNC(=O)C1CCC2(CC1)N(C)C(=O)c1c(O)c(=O)c(-c3nnc(Cc4ccc(F)cc4F)s3)cn1N2C (stereo not drawn) [Compound 126] | 24.3 nM | 82.2 nM | – | –
2 | CN1C(=O)c2c(O)c(=O)c(-c3nnc(Cc4ccc(F)cc4F)s3)cn2N(C)C12CCC(C(=O)NCc1cnoc1)CC2 (stereo not drawn) [Compound 127] | – | 376 nM | – | IC50 [3]: 112 nM
3 | CN1C(=O)c2c(O)c(=O)c(-c3nnc(Cc4ccc(F)cc4F)s3)cn2N(C)C12CCC(C(=O)NCc1cnoc1)CC2 (stereo not drawn) [Compound 128] | 81.8 nM | 101 nM | – | –
4 | CN1C(=O)c2c(O)c(=O)c(-c3nnc(Cc4ccc(F)cc4F)s3)cn2N(C)C12CCC(C(=O)NCC1CCOC1)CC2 (stereo not drawn) [Compound 129] | 67.7 nM | 1080 nM | – | –
5 | CN1C(=O)c2c(O)c(=O)c(-c3nnc(Cc4ccc(F)cc4F)s3)cn2N(C)C12CCC(C(=O)NCC1CCOC1)CC2 (stereo not drawn) [Compound 130] | 13.7 nM | 33.9 nM | – | –
6 | CN1C(=O)c2c(O)c(=O)c(-c3nnc(Cc4ccc(F)cc4F)s3)cn2N(C)C12CCC(C(=O)NCc1cn(C)cn1)CC2 (stereo not drawn) [Compound 131] | 459 nM | 642 nM | – | –
7 | CN1C(=O)c2c(O)c(=O)c(-c3nnc(Cc4ccc(F)cc4F)s3)cn2N(C)C12CCC(C(=O)NCc1cn(C)cn1)CC2 (stereo not drawn) [Compound 132] | 109 nM | 173 nM | – | –
8 | CN1C(=O)c2c(O)c(=O)c(-c3nnc(Cc4ccc(F)cc4F)s3)cn2N(C)C12CCC(C(=O)NCc1cncs1)CC2 (stereo not drawn) [Compound 133] | 190 nM | 548 nM | – | –
9 | CN1C(=O)c2c(O)c(=O)c(-c3nnc(Cc4ccc(F)cc4F)s3)cn2N(C)C12CCC(C(=O)NCc1cncs1)CC2 (stereo not drawn) [Compound 134] | 20.9 nM | 122 nM | – | –
10 | COc1cc(CNC(=O)C2CCC3(CC2)N(C)C(=O)c2c(O)c(=O)c(-c4nnc(Cc5ccc(F)cc5F)s4)cn2N3C)on1 (stereo not drawn) [Compound 135] | 76.3 nM | – | – | IC50 [4]: 290 nM
11 | COc1cc(CNC(=O)C2CCC3(CC2)N(C)C(=O)c2c(O)c(=O)c(-c4nnc(Cc5ccc(F)cc5F)s4)cn2N3C)on1 (stereo not drawn) [Compound 136] | 30.8 nM | 151 nM | – | –
12 | CN1C(=O)c2c(O)c(=O)c(-c3nnc(Cc4ccc(F)cc4F)s3)cn2N(C)C12CCC(C(=O)NCC1CCS(=O)(=O)C1)CC2 (stereo not drawn) [Compound 137] | 108 nM | – | – | IC50 [4]: 707 nM
13 | CN1C(=O)c2c(O)c(=O)c(-c3nnc(Cc4ccc(F)cc4F)s3)cn2N(C)C12CCC(C(=O)NCC1CCS(=O)(=O)C1)CC2 (stereo not drawn) [Compound 138] | 445 nM | 1180 nM | – | –
14 | CN(CCNC(=O)C1CCC2(CC1)N(C)C(=O)c1c(O)c(=O)c(-c3nnc(Cc4ccc(F)cc4F)s3)cn1N2C)C(=O)OC(C)(C)C (stereo not drawn) [Compound 139] | – | 186 nM | – | IC50 [3]: 54.3 nM
15 | CN(CCNC(=O)C1CCC2(CC1)N(C)C(=O)c1c(O)c(=O)c(-c3nnc(Cc4ccc(F)cc4F)s3)cn1N2C)C(=O)OC(C)(C)C (stereo not drawn) [Compound 140] | 61.6 nM | 28.2 nM | – | –
16 | CN1C(=O)c2c(O)c(=O)c(-c3nnc(Cc4ccc(F)cc4F)s3)cn2N(C)C12CCC(C(=O)NC1CC1)C2 (stereo not drawn) [Compound 141] | – | – | 1990 nM | IC50 [3]: 59.7 nM
17 | CN1C(=O)c2c(O)c(=O)c(-c3nnc(Cc4ccc(F)cc4F)s3)cn2N(C)C12CC[C@@H](C(=O)NC1CC1)C(C)(C)C2 (stereo partly drawn) [Compound 142] | – | – | 558 nM | IC50 [3]: 5.63 nM
18 | CN1C(=O)c2c(O)c(=O)c(-c3nnc(Cc4ccc(F)cc4F)s3)cn2N(C)C12CC[C@@H](C(=O)NC1CC1)C(C)(C)C2 (stereo partly drawn) [Compound 143] | 7.48 nM | – | – | IC50 [6]: 817 nM
19 | CC(C)[C@]1(C(=O)NC2CC2)CCC2(C1)N(C)C(=O)c1c(O)c(=O)c(-c3nnc(Cc4ccc(F)cc4F)s3)cn1N2C (stereo partly drawn) [Compound 144] | – | – | 205 nM | IC50 [3]: 10.7 nM
20 | CN(C)C(=O)C1CCC2(CC1)N(C)C(=O)c1c(O)c(=O)c(-c3nnc(Cc4ccc(F)cc4)s3)cn1N2C (stereo not drawn) [Compound 145] | – | 102 nM | – | –
21 | CN(C)C(=O)C1CCC2(CC1)N(C)C(=O)c1c(O)c(=O)c(-c3nnc(Cc4ccc(F)cc4)s3)cn1N2C (stereo not drawn) [Compound 146] | – | 9.02 nM | 188 nM | –

Row | Structure (SMILES) | IC50 [1] | IC50 [2] | IC50 [5] | also measured
22 | CN(C)C(=O)C1(C)CCC2(CC1)N(C)C(=O)c1c(O)c(=O)c(-c3nnc(Cc4ccc(F)cc4)s3)cn1N2C (stereo not drawn) [Compound 147] | – | – | 117 nM | IC50 [4]: 15.1 nM
23 | CN(C)C(=O)C1(C)CCC2(CC1)N(C)C(=O)c1c(O)c(=O)c(-c3nnc(Cc4ccc(F)cc4)s3)cn1N2C (stereo not drawn) [Compound 148] | – | 8.6 nM | – | IC50 [6]: 119 nM
24 | C[C@H]1CC2(CC[C@@H]1C(=O)N(C)C)N(C)C(=O)c1c(O)c(=O)c(-c3nnc(Cc4ccc(F)cc4)s3)cn1N2C (stereo partly drawn) [Compound 149] | – | – | – | IC50 [4]: 43.7 nM
25 | C[C@@H]1CC2(CC[C@@H]1C(=O)N(C)C)N(C)C(=O)c1c(O)c(=O)c(-c3nnc(Cc4ccc(F)cc4)s3)cn1N2C (stereo partly drawn) [Compound 150] | – | – | 221 nM | IC50 [3]: 13.3 nM; IC50 [4]: 18.9 nM
26 | CN1C2CCCCN2C(=O)c2c(O)c(=O)c(-c3nnc(Cc4ccc(F)cc4)s3)cn21 (stereo not drawn) [Compound 153] | – | 16.5 nM | 1430 nM | –
27 | CN1C2CCCCN2C(=O)c2c(O)c(=O)c(-c3nnc(Cc4ccc(F)cc4)s3)cn21 (stereo not drawn) [Compound 154] | – | 33.9 nM | – | IC50 [6]: 1590 nM
28 | CC1CCC2N1C(=O)c1c(O)c(=O)c(-c3nnc(Cc4ccc(F)cc4F)s3)cn1N2C (stereo not drawn) [Compound 156] | – | – | 989 nM | IC50 [4]: 26.7 nM
29 | CN1C2CCCCN2C(=O)c2c(O)c(=O)c(-c3nnc(Cc4ccc(F)cc4F)s3)cn21 (stereo not drawn) [Compound 157] | – | – | 613 nM | IC50 [4]: 14.2 nM
30 | CN1C2CCCCN2C(=O)c2c(O)c(=O)c(-c3nnc(Cc4ccc(F)cc4F)s3)cn21 (stereo not drawn) [Compound 158] | – | 17.7 nM | – | IC50 [6]: 503 nM
31 | CN1C2COCCN2C(=O)c2c(O)c(=O)c(-c3nnc(Cc4ccc(F)cc4)s3)cn21 (stereo not drawn) [Compound 161] | – | 41.1 nM | – | IC50 [6]: 465 nM
32 | CN1C2COCCN2C(=O)c2c(O)c(=O)c(-c3nnc(Cc4ccc(F)cc4)s3)cn21 (stereo not drawn) [Compound 162] | – | 10.8 nM | – | IC50 [6]: 186 nM
33 | CN1C2C(O)CCCN2C(=O)c2c(O)c(=O)c(-c3nnc(Cc4ccc(F)cc4F)s3)cn21 (stereo not drawn) [Compound 164] | 3.48 nM | – | – | IC50 [6]: 82.2 nM
34 | CN1C2C(O)CCCN2C(=O)c2c(O)c(=O)c(-c3nnc(Cc4ccc(F)cc4F)s3)cn21 (stereo not drawn) [Compound 165] | 5.12 nM | – | – | IC50 [6]: 54 nM
35 | CN1C2C(O)CCCN2C(=O)c2c(O)c(=O)c(-c3nnc(Cc4ccc(F)cc4F)s3)cn21 (stereo not drawn) [Compound 166] | 9 nM | – | – | IC50 [6]: 162 nM
36 | CN1C2C(O)CCCN2C(=O)c2c(O)c(=O)c(-c3nnc(Cc4ccc(F)cc4F)s3)cn21 (stereo not drawn) [Compound 167] | 2.52 nM | – | – | IC50 [6]: 41.9 nM
37 | CCN1C(=O)c2c(O)c(=O)c(-c3nnc(Cc4ccc(F)cc4)s3)cn2N(CCOC)C1C (stereo not drawn) [Compound 169] | – | – | 1510 nM | IC50 [4]: 90 nM
38 | CCN1C(=O)c2c(O)c(=O)c(-c3nnc(Cc4ccc(F)cc4)s3)cn2N(CC(=O)N(C)C)C1(C)C [Compound 171] | – | – | 673 nM | IC50 [4]: 21 nM
39 | COCCN1C(=O)c2c(O)c(=O)c(-c3nnc(Cc4ccc(F)cc4F)s3)cn2N(C)C12CCC2 [Compound 173] | – | – | 526 nM | IC50 [3]: 7 nM
40 | CN1C(=O)c2c(O)c(=O)c(C(=O)NCc3ccc(F)cc3F)cn2CC12CC2 [Compound 174] | – | – | 125 nM | IC50 [3]: 2.87 nM
41 | C[C@H]1n2cc(C(=O)NCc3ccc(F)cc3F)c(=O)c(O)c2C(=O)N(C)C12CC2 [Compound 175] | – | – | 37.1 nM | IC50 [3]: 1.54 nM
